According to patent US5140010A, “Stabilized aqueous formulations of thymopentin” (Immunobiology Research Institute, priority 1991, dated 1992):
Where two headings read alike, the source gives them in different places. No end group written: not given here.

Columns and labels:
[1] = stabilizing effect of other amino acids upon thymopentin in aqueous formulation
Protocol: To the peptide solution is added a sufficient amount of glycine to stabilize the solution.

[2] = human clinical research, clinical pharmacological result; type: in vivo; details: patients
Protocol: (§1) In experiments with thymopentin, it was observed that the optimal doses of thymopentin in an injectable aqueous formulation for immunostimulation in laboratory animals was about 1 μg/kg of body weight. For laboratory use, these dosages were prepared immediately prior to use.

[3] = immunostimulation in laboratory animals, injectable aqueous formulation; type: in vivo; details: injectable aqueous formulation prepared immediately prior to use
Protocol: as §1

C[C@H](N)C(=O)O [alanine]
stabilizing effect upon thymopentin [1]: do not exert the stabilizing effect

N=C(N)NCCC[C@H](N)C(=O)O [arginine]
stabilizing effect upon thymopentin [1]: do not exert the stabilizing effect

N[C@@H](CC(=O)O)C(=O)O [aspartic acid]
stabilizing effect upon thymopentin [1]: do not exert the stabilizing effect

N[C@@H](CCC(=O)O)C(=O)O [glutamic acid]
stabilizing effect upon thymopentin ([1]; amino acid in place of glycine): do not exert the stabilizing effect

N[C@@H](Cc1c[nH]cn1)C(=O)O [histidine]
stabilizing effect upon thymopentin [1]: do not exert the stabilizing effect

NCCCC[C@H](N)C(=O)O [lysine]
stabilizing effect upon thymopentin [1]: do not exert the stabilizing effect

O=C(O)[C@@H]1CCCN1 [proline]
stabilizing effect upon thymopentin [1]: do not exert the stabilizing effect

N[C@@H](Cc1c[nH]c2ccccc12)C(=O)O [tryptophan]
stabilizing effect upon thymopentin [1]: do not exert the stabilizing effect

N[C@@H](Cc1ccc(O)cc1)C(=O)O [tyrosine]
stabilizing effect upon thymopentin [1]: do not exert the stabilizing effect

RKDVY [thymopentin]
dose required to produce a clinical pharmacological result [2]: ≥ 1 mg/kg body weight | optimal dose for immunostimulation [3]: about 1 μg/kg of body weight
